Assay results reported in publication PMC4516925, “Three Peptide Modulators of the Human Voltage-Gated Sodium Channel 1.7, an Important Analgesic Target, from the Venom of an Australian Tarantula” (Toxins, 2015).
Entries after “also recorded” stand apart in the source; their conditions may differ. Where a SMILES comes first, the peptide text is derived from it. Bridges are numbered along the chain shown (N, C = ends).

Assays:
NaV channels = details: cited from earlier work
Text: Approximately 12% of spider toxins are C-terminally amidated. In addition to a possible role in peptide stability, C-terminal amidation can modulate biological activity. The 35-residue spider-venom peptide huwentoxin-IV (HwTx-IV) is a member of NaSpTx Family 1 isolated from venom of the tarantula Haplopelma schmidti (formerly known as Ornithoctonus huwena). Remarkably, native HwTx-IV with C-terminal amidation inhibits hNaV1.7 with is ~50-fold higher potency than a recombinant version with a C-terminal carboxylate group. […] Thus, we investigated the effects of Phlogius peptides on the current-voltage (I-V) relationship for hNaV1.7 using step-depolarisations ranging from −60 to +70 mV from a holding potential of −80 mV.

human NaV1.8 = details: cited from earlier work
Text: (§1) Approximately 12% of spider toxins are C-terminally amidated. In addition to a possible role in peptide stability, C-terminal amidation can modulate biological activity. The 35-residue spider-venom peptide huwentoxin-IV (HwTx-IV) is a member of NaSpTx Family 1 isolated from venom of the tarantula Haplopelma schmidti (formerly known as Ornithoctonus huwena). Remarkably, native HwTx-IV with C-terminal amidation inhibits hNaV1.7 with is ~50-fold higher potency than a recombinant version with a C-terminal carboxylate group. Although not in the same peptide family as HwTx-IV (NaSpTx F ...

human NaV1.5 = details: cited from earlier work
Text: as §1

hNaV1.7 [1] = molecular target: T1, hNaV1.7 (Homo sapiens, UniProt Q15858); details: cited from earlier work
T1 construct: expressed in transfected cells; host or cells: Xenopus oocytes (cRNA injection)

rNaV1.2 = molecular target: T2, rNaV1.2 (Rattus norvegicus, UniProt P04775); test: Inhibition of rNaV1.2 currents, two-electrode voltage clamp in Xenopus oocytes; format: cell-based; details: TEVC; for inhibition at 1 µM: 1 μM peptide, 50-ms step to 0 mV from −80 mV every 10 s
T2 construct: expressed in transfected cells; host or cells: Xenopus oocytes (cRNA injection)
Description: (§2) Plasmids containing cloned rNaV1.2, hNaV1.5 and hNaV1.7 were linearised, then capped cRNAs were synthesised using a T7 mMESSAGE-mMACHINE transcription kit (Ambion, Austin, TX, USA). Stage V-VI oocytes were obtained from anesthetised Xenopus frogs and prepared as previously described. Oocytes were injected with 20–40 ng of cRNA (Nanoject 2000; WPI, Sarasota, FL, USA) and incubated for 2–6 days at 17 °C in ND96 solution (96 mM NaCl, 2 mM KCl, 1 mM CaCl2, 2 mM MgCl2, 5 mM HEPES, pH 7.4), supplemented with 2.5 mM sodium pyruvate, 50 μg/mL gentamicin and 2.5% horse serum prior to electrophysiological recordings. All work with animals was carried out in strict accordance with the recommendations in the Australian code of practice for the care and use of animals for scientific purposes. The protocol was approved by the Anatomical Biosciences group of the Animal Ethics Committee at The University of Queensland (Approval Number QBI/059/13/ARC/NHMRC).
(§3) Two-electrode voltage clamp (TEVC) recordings were performed at room temperature (20 °C–22 °C) under voltage-clamp (Axoclamp 900A, Molecular Devices, Sunnyvale, CA, USA) using two standard glass microelectrodes of 0.5–1 MΩ resistance when filled with 3 M KCl solution. Stimulation, data acquisition, and analysis were performed using pCLAMP software (Version 10, Molecular Devices, Sunnyvale, CA, USA). Peptide stock solutions were made up to 30 μM, and serial dilutions were prepared in ND96 solution (pH 7.4) containing 0.1% bovine serum albumin (BSA). Venom peptides were applied directly to the recording chamber to prevent adsorption to plastics.
NaV channel recordings were performed on oocytes clamped at −80 mV. Data were sampled at 20 kHz and filtered at 2 kHz. Inward sodium currents were elicited by a 50-ms depolarising step to 0 mV every 10 s. Once the peak current had stabilised (typically ~3 min), serial dilutions of peptides were applied to oocytes to obtain concentration-effect curves. Data were analysed using Clampfit 10.2 and Prism 6.0 (GrahPad Software, La Jolla, CA, USA, 2013). The Hill equation was fit to the data to obtain the half-maximal inhibitory concentration (IC50) values and Hill coefficient (nH). Data are presented as mean ± S.E.M. (n = number of oocytes). I-V relationships in the absence and presence of 300 nM and 1 μM peptide were obtained on oocytes clamped at −80 mV; families of currents were evoked by applying 50-ms depolarising steps from −60 mV to +70 mV with 10-mV increments every 10 s. […] Data were normalised to the maximal peak current and analysed using Clampfit 10.2 and Prism 6.0.

hNaV1.7 [2] = molecular target: T1, hNaV1.7; test: Current-voltage (I-V) relationship / V0.5 of activation of hNaV1.7; format: cell-based; details: 300 nM and 1 μM; n = 6
Description: as §2, with “QBI/059/13/ARC/NHMRC). […]” for “QBI/059/13/ARC/NHMRC).”
(§4) NaV channel recordings were performed on oocytes clamped at −80 mV. […] Data were analysed using Clampfit 10.2 and Prism 6.0 (GrahPad Software, La Jolla, CA, USA, 2013). […] Data were normalised to the maximal peak current and analysed using Clampfit 10.2 and Prism 6.0.

hNaV1.5 = molecular target: T3, hNaV1.5 (Homo sapiens, UniProt Q14524); test: Inhibition of hNaV1.5 currents, two-electrode voltage clamp in Xenopus oocytes; format: cell-based; details: TEVC
T3 construct: expressed in transfected cells; host or cells: Xenopus oocytes (cRNA injection)
Description: as §2, §3
as §4, with “mV. Data were sampled at 20 kHz and filtered at 2 kHz. Inward sodium currents were elicited by a 50-ms depolarising step to 0 mV every 10 s.” for “mV.”

hNaV1.7 [3] = molecular target: T1, hNaV1.7; test: Inhibition of hNaV1.7 currents, two-electrode voltage clamp in Xenopus oocytes; format: cell-based; details: TEVC; for IC50 / Hill coefficient, inhibition of hNaV1.7: Xenopus oocytes, n = 5–7; for IC50: 50-ms step to 0 mV from −80 mV every 10 s, ND96 pH 7.4 with 0.1% BSA, 20 °C–22 °C, Hill equation, mean ± S.E.M.; for Selectivity, hNaV1.7 versus rNaV1.2 and hNaV1.5 (in words): comparison with rNaV1.2 and hNaV1.5, Xenopus oocytes; for Hill coefficient, inhibition of hNaV1.7: from concentration-effect curve
Description: as §2, §3
NaV channel recordings were performed on oocytes clamped at −80 mV. Data were sampled at 20 kHz and filtered at 2 kHz. Inward sodium currents were elicited by a 50-ms depolarising step to 0 mV every 10 s. Once the peak current had stabilised (typically ~3 min), serial dilutions of peptides were applied to oocytes to obtain concentration-effect curves. Data were analysed using Clampfit 10.2 and Prism 6.0 (GrahPad Software, La Jolla, CA, USA, 2013). The Hill equation was fit to the data to obtain the half-maximal inhibitory concentration (IC50) values and Hill coefficient (nH). Data are presented as mean ± S.E.M. (n = number of oocytes). I-V relationships in the absence and presence of 300 nM and 1 μM peptide were obtained on oocytes clamped at −80 mV; families of currents were evoked by applying 50-ms depolarising steps from −60 mV to +70 mV with 10-mV increments every 10 s. After acquiring the control I–V curve, the first concentration of peptide was added and the inhibitory effect was allowed to plateau (a test pulse from −80 to 0 mV every 10 s) before obtaining an I–V curve in the presence of peptide. This was repeated for the second concentration of peptide. Data were normalised to the maximal peak current and analysed using Clampfit 10.2 and Prism 6.0.

NaV1.2 [4] = details: cited from earlier work
NaV1.2 [5] = details: chimeric KV1.2/NaV1.2 channels; rat NaV1.2; cited from earlier work
[6] = system: sodium channel domain II voltage sensor; details: gating modifier; cited from earlier work
NaV1.5 = details: cited from earlier work

T3 sequence (Q14524 whole entry): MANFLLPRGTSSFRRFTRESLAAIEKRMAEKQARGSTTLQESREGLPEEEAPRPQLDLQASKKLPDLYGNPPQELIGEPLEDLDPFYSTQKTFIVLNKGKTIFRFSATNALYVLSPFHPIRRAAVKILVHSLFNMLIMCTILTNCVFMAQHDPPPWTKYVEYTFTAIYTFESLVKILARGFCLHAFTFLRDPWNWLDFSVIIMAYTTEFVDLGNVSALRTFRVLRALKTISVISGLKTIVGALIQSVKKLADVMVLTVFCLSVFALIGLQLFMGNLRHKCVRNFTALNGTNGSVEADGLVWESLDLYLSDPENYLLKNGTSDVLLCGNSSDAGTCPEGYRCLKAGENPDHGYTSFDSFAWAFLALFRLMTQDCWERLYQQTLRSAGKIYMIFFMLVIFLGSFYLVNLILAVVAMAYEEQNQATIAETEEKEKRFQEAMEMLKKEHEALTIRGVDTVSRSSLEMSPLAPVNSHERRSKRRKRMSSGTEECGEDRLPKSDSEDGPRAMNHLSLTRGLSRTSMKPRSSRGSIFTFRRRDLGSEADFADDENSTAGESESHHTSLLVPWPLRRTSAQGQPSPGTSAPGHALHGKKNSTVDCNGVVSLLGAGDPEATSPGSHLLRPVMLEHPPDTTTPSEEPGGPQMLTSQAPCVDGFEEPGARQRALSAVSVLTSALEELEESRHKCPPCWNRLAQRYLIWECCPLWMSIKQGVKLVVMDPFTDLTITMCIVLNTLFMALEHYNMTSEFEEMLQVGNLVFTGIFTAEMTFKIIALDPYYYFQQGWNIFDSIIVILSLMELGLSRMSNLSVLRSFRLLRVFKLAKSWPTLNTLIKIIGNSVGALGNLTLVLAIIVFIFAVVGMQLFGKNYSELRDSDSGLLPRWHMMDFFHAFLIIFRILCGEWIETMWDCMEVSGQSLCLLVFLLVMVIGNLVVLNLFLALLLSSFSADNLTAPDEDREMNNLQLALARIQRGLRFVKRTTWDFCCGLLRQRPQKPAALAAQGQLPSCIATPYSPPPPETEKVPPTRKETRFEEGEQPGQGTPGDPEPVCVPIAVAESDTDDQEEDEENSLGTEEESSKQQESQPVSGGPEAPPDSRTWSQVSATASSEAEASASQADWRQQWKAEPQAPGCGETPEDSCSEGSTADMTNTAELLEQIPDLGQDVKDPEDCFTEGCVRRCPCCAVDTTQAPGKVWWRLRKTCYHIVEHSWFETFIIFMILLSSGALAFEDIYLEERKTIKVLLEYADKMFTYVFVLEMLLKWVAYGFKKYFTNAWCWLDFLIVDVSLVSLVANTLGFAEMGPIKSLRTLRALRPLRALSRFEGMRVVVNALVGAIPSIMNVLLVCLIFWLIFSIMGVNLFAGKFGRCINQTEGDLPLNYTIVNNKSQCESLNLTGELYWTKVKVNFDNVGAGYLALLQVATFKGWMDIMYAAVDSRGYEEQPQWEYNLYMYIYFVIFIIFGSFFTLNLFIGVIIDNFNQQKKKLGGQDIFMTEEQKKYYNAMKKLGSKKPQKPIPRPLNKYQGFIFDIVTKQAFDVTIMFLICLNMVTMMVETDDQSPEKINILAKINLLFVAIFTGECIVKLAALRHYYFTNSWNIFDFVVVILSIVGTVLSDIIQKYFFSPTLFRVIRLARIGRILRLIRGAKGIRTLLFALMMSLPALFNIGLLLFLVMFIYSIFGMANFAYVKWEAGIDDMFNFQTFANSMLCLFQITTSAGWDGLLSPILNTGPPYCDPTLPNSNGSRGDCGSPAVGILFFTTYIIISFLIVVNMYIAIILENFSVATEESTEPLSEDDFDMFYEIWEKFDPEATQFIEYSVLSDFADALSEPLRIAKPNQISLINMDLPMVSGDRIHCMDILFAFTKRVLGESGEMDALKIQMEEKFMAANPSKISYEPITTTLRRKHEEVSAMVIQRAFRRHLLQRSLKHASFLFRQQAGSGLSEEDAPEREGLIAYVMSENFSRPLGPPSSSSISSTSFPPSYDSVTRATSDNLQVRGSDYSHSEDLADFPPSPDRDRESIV
T1 sequence (Q15858 whole entry): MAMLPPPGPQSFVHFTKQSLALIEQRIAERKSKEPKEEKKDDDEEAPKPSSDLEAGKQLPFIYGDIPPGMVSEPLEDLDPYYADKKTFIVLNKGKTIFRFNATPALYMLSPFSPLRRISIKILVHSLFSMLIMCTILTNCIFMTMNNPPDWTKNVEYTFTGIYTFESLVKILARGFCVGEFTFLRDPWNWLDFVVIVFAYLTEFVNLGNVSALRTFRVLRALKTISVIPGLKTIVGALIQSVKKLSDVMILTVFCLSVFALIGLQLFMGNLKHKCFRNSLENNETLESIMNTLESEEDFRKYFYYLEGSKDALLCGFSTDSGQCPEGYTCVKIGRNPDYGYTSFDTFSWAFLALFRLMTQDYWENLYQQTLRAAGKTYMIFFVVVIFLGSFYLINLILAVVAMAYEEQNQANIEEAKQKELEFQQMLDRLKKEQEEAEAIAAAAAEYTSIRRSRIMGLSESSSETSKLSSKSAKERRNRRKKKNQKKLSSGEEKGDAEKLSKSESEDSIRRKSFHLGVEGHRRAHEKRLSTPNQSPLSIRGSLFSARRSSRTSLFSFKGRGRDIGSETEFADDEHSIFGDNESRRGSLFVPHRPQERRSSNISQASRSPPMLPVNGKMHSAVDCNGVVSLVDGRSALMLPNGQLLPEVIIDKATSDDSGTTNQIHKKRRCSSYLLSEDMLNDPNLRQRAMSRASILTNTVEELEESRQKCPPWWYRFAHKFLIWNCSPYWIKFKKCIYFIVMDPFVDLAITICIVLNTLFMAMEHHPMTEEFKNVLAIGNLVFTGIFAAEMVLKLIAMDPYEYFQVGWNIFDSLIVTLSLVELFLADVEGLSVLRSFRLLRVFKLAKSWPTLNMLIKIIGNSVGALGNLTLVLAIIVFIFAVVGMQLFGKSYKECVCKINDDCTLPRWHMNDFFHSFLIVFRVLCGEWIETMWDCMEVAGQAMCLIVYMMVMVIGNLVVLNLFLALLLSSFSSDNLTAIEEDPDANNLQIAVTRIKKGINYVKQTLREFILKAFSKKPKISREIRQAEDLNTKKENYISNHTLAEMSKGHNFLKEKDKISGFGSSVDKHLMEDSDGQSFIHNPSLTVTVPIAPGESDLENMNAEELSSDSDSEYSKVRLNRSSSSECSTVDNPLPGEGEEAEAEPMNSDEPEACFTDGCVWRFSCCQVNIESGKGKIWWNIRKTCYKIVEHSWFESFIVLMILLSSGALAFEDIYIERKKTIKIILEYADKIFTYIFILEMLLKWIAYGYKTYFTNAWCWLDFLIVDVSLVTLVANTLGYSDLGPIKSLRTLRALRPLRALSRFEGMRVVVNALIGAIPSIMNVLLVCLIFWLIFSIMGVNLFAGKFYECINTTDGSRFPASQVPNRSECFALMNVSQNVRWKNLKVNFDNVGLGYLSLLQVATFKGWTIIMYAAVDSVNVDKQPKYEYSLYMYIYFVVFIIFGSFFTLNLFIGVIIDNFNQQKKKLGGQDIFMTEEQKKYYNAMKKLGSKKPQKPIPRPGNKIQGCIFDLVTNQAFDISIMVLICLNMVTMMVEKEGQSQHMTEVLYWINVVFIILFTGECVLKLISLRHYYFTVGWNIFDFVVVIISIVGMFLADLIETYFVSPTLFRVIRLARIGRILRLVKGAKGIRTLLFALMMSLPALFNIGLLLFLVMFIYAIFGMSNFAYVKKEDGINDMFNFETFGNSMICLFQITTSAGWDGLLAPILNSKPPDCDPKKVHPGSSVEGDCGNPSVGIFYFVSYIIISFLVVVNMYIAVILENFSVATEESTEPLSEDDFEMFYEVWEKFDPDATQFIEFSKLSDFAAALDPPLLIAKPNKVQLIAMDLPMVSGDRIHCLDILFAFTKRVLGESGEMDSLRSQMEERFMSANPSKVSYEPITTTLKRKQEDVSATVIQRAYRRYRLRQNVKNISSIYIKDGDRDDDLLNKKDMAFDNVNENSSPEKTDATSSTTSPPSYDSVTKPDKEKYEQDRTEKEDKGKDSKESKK

| Compound | inhibition at 1 µM (rNaV1.2) [%] | Effect on rNaV1.2 (in words) (rNaV1.2) | Effect on I-V relationship of hNaV1.7 (in words) (hNaV1.7 [2]) | Effect on hNaV1.5 (in words) (hNaV1.5) | IC50 (hNaV1.7 [3]) [nM] | Selectivity, hNaV1.7 versus rNaV1.2 and hNaV1.5 (in words) (hNaV1.7 [3]) | Hill coefficient, inhibition of hNaV1.7 (hNaV1.7 [3]) | also measured |
| --- | --- | --- | --- | --- | --- | --- | --- | --- |
| ProTx-I | – | – | – | – | – | – | – | Effect on NaV channel activation (in words) (NaV channels): inhibit NaV channels by shifting the threshold for channel activation to more positive potentials; Blockade of human NaV1.8 (in words) (human NaV1.8): potent blocker; Blockade of human NaV1.5 (in words) (human NaV1.5): potent blocker; Blockade of human NaV1.7 (in words) (hNaV1.7 [1]): potent blocker |
| CC[C@H](C)[C@H](NC(=O)[C@@H](NC(=O)[C@H](Cc1c[nH]c2ccccc12)NC(=O)[C@H](CC(=O)O)NC(=O)[C@H](Cc1c[nH]c2ccccc12)NC(=O)[C@@H](NC(=O)[C@@H]1CSSC[C@@H]2NC(=O)[C@H](CC(=O)O)NC(=O)[C@H](CO)NC(=O)[C@H](CC(=O)O)NC(=O)[C@H](CCCCN)NC(=O)[C@H](CO)NC(=O)[C@@H]3CSSC[C@H](NC(=O)[C@H](CCC(=O)O)NC(=O)[C@H](CC(C)C)NC(=O)[C@H](Cc4c[nH]cn4)NC(=O)[C@H](C)NC(=O)[C@H](CSSC[C@H](NC(=O)[C@H](C)N)C(=O)N[C@@H](CCCNC(=N)N)C(=O)N[C@@H](CCC(=O)O)C(=O)N[C@@H](CC(C)C)C(=O)N[C@@H](CC(C)C)C(=O)NCC(=O)NCC(=O)N3)NC2=O)C(=O)N[C@@H](CCCNC(=N)N)C(=O)N[C@@H](CCCCN)C(=O)N[C@@H](CCCCN)C(=O)N[C@@H](Cc2c[nH]c3ccccc23)C(=O)N2CCC[C@H]2C(=O)N[C@@H](Cc2ccc(O)cc2)C(=O)N[C@@H](Cc2c[nH]cn2)C(=O)N1)C(C)C)[C@@H](C)O)C(N)=O [Phlo1a] (H-ACRELLGGCSKDSDCCAHLECRKKWPYHCVWDWTI-NH2; disulfide 2-16, 9-21, 15-29 (inferred); N-terminus assumed) | < 20 | only minor inhibitory activity | concentration-dependent, depolarising shifts in the I-V relationship for hNaV1.7 | only minor inhibitory activity | 459 | inhibited rNaV1.2 and hNaV1.5 much less potently than hNaV1.7; also recorded: inhibit hNaV1.7 more potently than rNaV1.2 and hNaV1.5; also recorded: high level of selectivity for NaV1.7 over NaV1.2 and NaV1.5 | 0.87 | inhibition at 1 µM (hNaV1.5; 1 μM peptide, 50-ms step to 0 mV from −80 mV every 10 s): < 20% |
| HwTx-IV | – | – | – | – | – | – | – | Fold higher potency at hNaV1.7, native amidated vs recombinant C-terminal carboxylate (hNaV1.7 [1]; native HwTx-IV (C-terminal amide) versus recombinant version with C-terminal carboxylate, no reference printed at the sentence (isolation: ref 24)): ~ 50 fold |
| ProTx-II: most potent blocker of hNaV1.7 within NaSpTx family 3 | – | – | – | – | – | – | – | IC50 (NaV1.2 [4]): 41 nM; Activity (channel type), NaSpTx3 alignment (NaV channels; Figure 8C annotation, no reference given): Nav; Voltage sensors bound (in words) (NaV1.2 [5]): binds to the voltage sensors in domains I, II and IV of rat NaV1.2; also recorded: binding to the voltage sensors in domains I, II (receptor site 4), and IV (receptor site 3) of NaV1.2; Mechanism of sodium conductance reduction (in words) [6]: reduces sodium conductance by trapping the domain II voltage sensor in the closed state; IC50 (NaV1.5): 79 nM; Binding to NaV1.5 receptor site 4 (in words) (NaV1.5; mutagenesis study of NaV1.5): does not bind to receptor site 4 on the domain II voltage sensor; Effect on NaV1.5 gating (in words) (NaV1.5; voltage-dependence of activation): shifts the voltage-dependence of activation of NaV1.5 to more positive potentials |
| CC(C)C[C@@H]1NC(=O)[C@H](CC(C)C)NC(=O)[C@H](CCC(=O)O)NC(=O)[C@H](CCCNC(=N)N)NC(=O)[C@@H](NC(=O)[C@H](C)N)CSSC[C@@H]2NC(=O)[C@@H]3CSSC[C@@H](C(=O)N[C@H](C(=O)N[C@@H](Cc4c[nH]c5ccccc45)C(=O)N[C@@H](CC(=O)O)C(=O)N[C@@H](Cc4c[nH]c5ccccc45)C(=O)N[C@H](C(=O)N[C@@H](Cc4ccccc4)C(N)=O)[C@@H](C)O)C(C)C)NC(=O)[C@H](Cc4c[nH]cn4)NC(=O)[C@H](Cc4ccc(O)cc4)NC(=O)[C@@H]4CCCN4C(=O)[C@H](Cc4c[nH]c5ccccc45)NC(=O)[C@H](CCCCN)NC(=O)[C@H](CCCCN)NC(=O)[C@H](CCCNC(=N)N)NC(=O)[C@H](CSSC[C@H](NC(=O)CNC(=O)CNC1=O)C(=O)N[C@@H](CO)C(=O)N[C@@H](CCCCN)C(=O)N[C@@H](CC(=O)O)C(=O)N[C@@H](CO)C(=O)N[C@@H](CC(=O)O)C(=O)N3)NC(=O)[C@H](CCC(=O)O)NC(=O)[C@H](CC(C)C)NC(=O)[C@H](Cc1c[nH]cn1)NC(=O)[C@H](C)NC2=O [Phlo1b] (H-ACRELLGGCSKDSDCCAHLECRKKWPYHCVWDWTF-NH2; disulfide 2-16, 9-21, 15-29 (inferred); N-terminus assumed) | 37 | only minor inhibitory activity; also recorded: slightly more potent at rNaV1.2 | concentration-dependent, depolarising shifts in the I-V relationship for hNaV1.7 | only minor inhibitory activity; also recorded: a similar effect as Phlo1a at hNaV1.5 | 360 | inhibit hNaV1.7 more potently than rNaV1.2 and hNaV1.5 | 1.04 | – |
